Experimental data: US20110224231A1, “Novel Lactams as Beta Secretase Inhibitors” (Pfizer Inc., priority 2008, published 2011)
Counter-ions that a name gives are not always drawn.

Target: T1, soluble human BACE (Homo sapiens, UniProt P56817)
T1 construct: cells secreting human recombinant soluble BACE; made in house; conditioned medium
Experiment: BACE activity Cell Free Assay (ELISA of cleaved synthetic APP substrate)
Assay type: biochemical
Settings: not given

T1 sequence (P56817 46-457 limits assumed): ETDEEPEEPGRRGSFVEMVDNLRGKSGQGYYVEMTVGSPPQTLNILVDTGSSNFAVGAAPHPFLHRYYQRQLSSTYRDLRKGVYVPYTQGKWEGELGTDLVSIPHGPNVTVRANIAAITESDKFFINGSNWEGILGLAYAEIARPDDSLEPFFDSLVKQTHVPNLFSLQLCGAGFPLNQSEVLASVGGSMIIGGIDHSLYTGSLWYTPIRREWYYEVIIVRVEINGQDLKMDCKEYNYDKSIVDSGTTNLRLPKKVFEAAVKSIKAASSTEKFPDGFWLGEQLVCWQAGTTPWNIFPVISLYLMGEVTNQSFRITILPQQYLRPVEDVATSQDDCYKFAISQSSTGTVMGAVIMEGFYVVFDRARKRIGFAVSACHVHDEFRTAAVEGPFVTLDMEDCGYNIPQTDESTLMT

SMILES | IC50
CC1CC2(CCC(=O)N2c2cccc(F)c2)CCN1Cc1c[nH]c2cc(F)ccc12 (racemic) [Example 74, Racemic (5R,7S),(5S,7R)-8-[(6-fluoro-1H-indol-3-yl)methyl]-1-(3-fluorophenyl)-7-methyl-1,8-diazaspiro[4.5]decan-2-one] | 100 to 300 µM
COC(=O)Nc1ccc(CN2CCC3(CCC(=O)N3c3cccc(F)c3)CC2C)cc1 (racemic) [Example 75, Racemic methyl (4-{[(5R,7S),(5S,7R)-1-(3-fluorophenyl)-7-methyl-2-oxo-1,8-diazaspiro[4.5]dec-8-yl]methyl}phenyl)carbamate] | 100 to 300 µM
CC1CC2(CCC(=O)N2c2cccc(F)c2)CCN1Cc1c[nH]c2ccc(C#N)cc12 (racemic) [Example 76, Racemic 3-{[(5R,7S),(5S,7R)-1-(3-fluorophenyl)-7-methyl-2-oxo-1,8-diazaspiro[4.5]dec-8-yl]methyl}-1H-indole-5-carbonitrile] | 100 to 300 µM
CC1CC2(CCC(=O)N2c2cccc(F)c2)CCN1Cc1ccnn1CC(F)(F)F (racemic) [Example 77, Racemic (5R,7S),(5S,7R)-1-(3-fluorophenyl)-7-methyl-8-{[1-(2,2,2-trifluoroethyl)-1H-pyrazol-5-yl]methyl}-1,8-diazaspiro[4.5]decan-2-one] | 100 to 300 µM
CC1CC2(CCC(=O)N2c2cccc(F)c2)CCN1Cc1n[nH]c2ccc(Cl)cc12 (racemic) [Example 78, Racemic (5R,7S),(5S,7R)-8-[(5-chloro-1H-indazol-3-yl)methyl]-1-(3-fluorophenyl)-7-methyl-1,8-diazaspiro[4.5]decan-2-one] | 100 to 300 µM
CC1CC2(CCC(=O)N2c2cccc(F)c2)CCN1Cc1cccc(-n2cccn2)c1 (racemic) [Example 79, Racemic (5R,7S),(5S,7R)-1-(3-fluorophenyl)-7-methyl-8-[3-(1H-pyrazol-1-yl)benzyl]-1,8-diazaspiro[4.5]decan-2-one] | 100 to 300 µM
CC1CC2(C=CC(=O)N2c2cccc(F)c2)CCN1Cc1ccc(OC(F)F)c(OC2CC2)c1 (racemic) [Example 80, Racemic (5R,7S),(5S,7R)-8-[3-(cyclopropyloxy)-4-(difluoromethoxy)benzyl]-1-(3-fluorophenyl)-7-methyl-1,8-diazaspiro[4.5]dec-3-en-2-one] | 100 to 300 µM
CC1CC2(CCC(=O)N2c2cccc(F)c2)CCN1Cc1nc(-c2cccc(Cl)c2)cs1 (racemic) [Example 81, Racemic (5R,7S),(5S,7R)-8-{[4-(3-chlorophenyl)-1,3-thiazol-2-yl]methyl}-1-(3-fluorophenyl)-7-methyl-1,8-diazaspiro[4.5]decan-2-one] | 100 to 300 µM
COC1(OC)CC(c2cccc(CN3CCC4(C=CC(=O)N4c4cccc(F)c4)CC3C)c2)C1 (racemic) [Example 82, Racemic (5R,7S),(5S,7R)-8-[3-(3,3-dimethoxycyclobutyl)benzyl]-1-(3-fluorophenyl)-7-methyl-1,8-diazaspiro[4.5]dec-3-en-2-one] | 100 to 300 µM
CC1CC2(C=CC(=O)N2c2cccc(F)c2)CCN1Cc1c[nH]c(-c2ccccc2)n1 (racemic) [Example 83, Racemic (5R,7S),(5S,7R)-1-(3-fluorophenyl)-7-methyl-8-[(2-phenyl-1H-imidazol-4-yl)methyl]-1,8-diazaspiro[4.5]dec-3-en-2-one] | 100 to 300 µM
CC1CC2(CCC(=O)N2c2cccc(F)c2)CCN1Cc1c[nH]c2cc(C(F)(F)F)ccc12 (racemic) [Example 84, Racemic (5R,7S),(5S.7R)-1-(3-fluorophenyl)-7-methyl-8-{[6-(trifluoromethyl)-1H-indol-3-yl]methyl}-1,8-diazaspiro[4.5]decan-2-one] | 100 to 300 µM
CC1CC2(C=CC(=O)N2c2cccc(F)c2)CCN1Cc1nc(-c2ccccc2Cl)cs1 (racemic) [Example 85, Racemic (5R,7S),(5S,7R)-8-{[4-(2-chlorophenyl)-1,3-thiazol-2-yl]methyl}-1-(3-fluorophenyl)-7-methyl-1,8-diazaspiro[4.5]dec-3-en-2-one] | 100 to 300 µM
CC1CC2(CCC(=O)N2c2cccc(F)c2)CCN1Cc1cccc(OCc2nc(C3CC3)no2)c1 (racemic) [Example 86, Racemic (5R,7S),(5S,7R)-8-{3-[(3-cyclopropyl-1,2,4-oxadiazol-5-yl)methoxy]benzyl}-1-(3-fluorophenyl)-7-methyl-1,8-diazaspiro[4.5]decan-2-one] | 100 to 300 µM
CC(C)Oc1cccc(CN2CC[C@]3(CC(F)C(=O)N3c3cccc(F)c3)C[C@@H]2C)c1 (mixture of isomers) [Example 90, Racemic (5R,7S)(5S,7R)-3-fluoro-1-(3-fluorophenyl)-8-(3-isopropoxybenzyl)-7˜methyl˜1,8˜diazaspiro[4.5]decan˜2˜one, formate salt] | 10 to 100 µM
CC(C)Oc1cccc(CN2CC[C@@]3(C[C@@H]2C)CC(F)(F)C(=O)N3c2cccc(F)c2)c1 (racemic) [Example 91, Racemic (5R,7S)(5S,7R)˜3,3˜difluoro˜1˜(3˜fluorophenyl)˜8˜(3˜isopropoxybenzyl)˜7˜methyl˜1,8˜diazaspiro[4.5]decan˜2˜one, formate salt] | 10 to 100 µM
CC(C)Oc1cccc(CN2CC[C@]3(CC(O)C(=O)N3c3cccc(F)c3)C[C@@H]2C)c1 (mixture of isomers) [Example 92, Racemic (3R/S,5R,7S)(3R/S,5S,7R)˜1˜(3˜fluorophenyl)˜3˜hydroxy˜8˜(3˜isopropoxybenzyl)-7-methyl-1,8-diazaspiro[4.5]decan-2-one, hydrochloride salt] | 10 to 100 µM
CC(C)Oc1cccc(CN2CC[C@]3(C=CC(=O)N3c3ccccn3)C[C@@H]2C)c1 [#101] | 10 to 100 µM
CC(C)Oc1cccc(CN2CC[C@]3(C=CC(=O)N3c3ccncc3)C[C@@H]2C)c1 [#102] | 100 to 300 µM
Cc1cccc(N2C(=O)C=C[C@]23CCN(Cc2cccc(OC(C)C)c2)[C@@H](C)C3)n1 [#107] | 1 to 10 µM
Cc1ccnc(N2C(=O)C=C[C@]23CCN(Cc2cccc(OC(C)C)c2)[C@@H](C)C3)c1 [#108] | 1 to 10 µM
Cc1ccc(N2C(=O)C=C[C@]23CCN(Cc2cccc(OC(C)C)c2)[C@@H](C)C3)cn1 [#109] | 10 to 100 µM

SMILES | IC50
Cc1cc(N2C(=O)C=C[C@]23CCN(Cc2cccc(OC(C)C)c2)[C@@H](C)C3)ccn1 [#110] | 10 to 100 µM
CC(C)Oc1cccc(CN2CC[C@]3(C=CC(=O)N3c3cccnc3)C[C@@H]2C)c1 [#111] | 10 to 100 µM
COc1cc(F)cc(N2C(=O)C=C[C@]23CCN(Cc2cccc(OC(C)C)c2)[C@@H](C)C3)c1 [#112] | 1 to 10 µM
CC(C)Oc1cccc(CN2CC[C@]3(C=CC(=O)N3c3cnn(C)c3)C[C@@H]2C)c1 [#113] | 10 to 100 µM
Cc1cncc(N2C(=O)C=C[C@]23CCN(Cc2cccc(OC(C)C)c2)[C@@H](C)C3)c1 [#114] | 1 to 10 µM
Cc1cccnc1N1C(=O)C=C[C@]12CCN(Cc1cccc(OC(C)C)c1)[C@@H](C)C2 [#115] | 10 to 100 µM
CC(C)Oc1cccc(CN2CC[C@]3(C=CC(=O)N3c3cncc(F)c3)C[C@@H]2C)c1 [#116] | 1 to 10 µM
CC(C)Oc1cccc(CN2CC[C@]3(C=CC(=O)N3c3cncc(Cl)c3)C[C@@H]2C)c1 [#117] | 1 to 10 µM
CC(C)Oc1cccc(CN2CC[C@]3(C=CC(=O)N3c3cncc(C(F)(F)F)c3)C[C@@H]2C)c1 [#118] | 10 to 100 µM
CC(C)Oc1cccc(CN2CC[C@]3(C=CC(=O)N3c3cc(C(F)(F)F)ccn3)C[C@@H]2C)c1 [#119] | 100 to 300 µM
CC(C)Oc1cccc(CN2CC[C@]3(C=CC(=O)N3c3cncc(C#N)c3)C[C@@H]2C)c1 [#120] | 10 to 100 µM
Cc1nc(N2C(=O)C=C[C@]23CCN(Cc2cccc(OC(C)C)c2)[C@@H](C)C3)cs1 [#121] | 1 to 10 µM
CC(C)Oc1cccc(CN2CC[C@]3(C=CC(=O)N3c3ccn(C)n3)C[C@@H]2C)c1 [#122] | 10 to 100 µM
CCn1cc(N2C(=O)C=C[C@]23CCN(Cc2cccc(OC(C)C)c2)[C@@H](C)C3)cn1 [#123] | 100 to 300 µM
CC(C)n1ncc2ccc(CN3CC[C@]4(C=CC(=O)N4c4cnccn4)C[C@@H]3C)cc21 [#130, (5R,7S)-8-[(1-isopropyl-1H-indazol-6-yl)methyl]-7-methyl-1-pyrazin-2-yl-1,8-diazaspiro[4.5]dec-3-en-2-one] | 10 to 100 µM
C[C@H]1C[C@@]2(C=CC(=O)N2c2cnccn2)CCN1Cc1scnc1CC1CCC1 [#131, (5R,7S)-8-([4-(cyclobutylmethyl)-1,3-thiazol-5-yl]methyl)-7-methyl-1-pyrazin-2-yl-1,8-diazaspiro[4.5]dec-3-en-2-one] | 1 to 10 µM
CC(C)Oc1cc(CN2CC[C@]3(C=CC(=O)N3c3cnccn3)C[C@@H]2C)ccc1O [#132, (5R,7S)-8-(4-hydroxy-3-isopropoxybenzyl)-7-methyl-1-pyrazin-2-yl-1,8-diazaspiro[4.5]dec-3-en-2-one] | 0.001 to 1 µM
CCCn1nccc1CN1CC[C@]2(C=CC(=O)N2c2cnccn2)C[C@@H]1C [#133, (5R,7S)-7-methyl-8-[(1-propyl-1H-pyrazol-5-yl)methyl]-1-pyrazin-2-yl-1,8-diazaspiro[4.5]dec-3-en-2-one] | 100 to 300 µM
C[C@H]1C[C@@]2(C=CC(=O)N2c2cnccn2)CCN1Cc1ccnn1CC(F)(F)F [#134, (5R,7S)-7-methyl-1-pyrazin-2-yl-8-[(1-(2,2,2-trifluoroethyl)-1H-pyrazol-5-yl]methyl]-1,8-diazaspiro[4.5]dec-3-en-2-one] | 100 to 300 µM
Cc1cccc(N2C(=O)C=C[C@]23CCN(Cc2ccc(O)c(OC(C)C)c2)[C@@H](C)C3)n1 [#135, (5R,7S)-8-(4-hydroxy-3-isopropoxybenzyl)-7-methyl-1-(6-methylpyridin-2-yl)-1,8-diazaspiro[4.5]dec-3-en-2-one] | 0.001 to 1 µM

Same assay, conditions: Table 4; cell free, soluble human BACE, pH 4.5, 3 μM substrate; read-out: BACE Activity (Cell Free Assay IC50)

SMILES | IC50
CC(C)Oc1cccc(CN2CC[C@]3(C=CC(=O)N3c3ccc(Cl)cn3)C[C@@H]2C)c1 [#104] | 10 to 100 µM
Cc1ccc(N2C(=O)C=C[C@]23CCN(Cc2cccc(OC(C)C)c2)[C@@H](C)C3)nc1 [#105] | 10 to 100 µM
CC(C)Oc1cccc(CN2CC[C@]3(C=CC(=O)N3c3ccc(F)cn3)C[C@@H]2C)c1 [#124] | 10 to 100 µM
CC(C)Oc1cccc(CN2CC[C@]3(C=CC(=O)N3c3cccc(C(F)(F)F)n3)C[C@@H]2C)c1 [#125] | 10 to 100 µM
Cc1cncc(N2C(=O)C=C[C@]23CCN(Cc2cccc(OC(C)C)c2)[C@@H](C)C3)n1 [#126] | 10 to 100 µM
